Assay results reported in patent publication US10131652B2, “Pyrimidinyloxy benzene derivatives as herbicides” (E. I. DU PONT DE NEMOURS AND COMPANY, priority 2014, dated 2018).

Experiments:
Format in all cases: in vivo
rice (Oryza sativa) = assay: Test C flooded paddy test plant response; details: Flood, 250 g ai/ha; scale of 0 to 100 where 0 is no effect and 100 is complete control; 13 to 15 days
Method in brief: (§1)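 Water-applied treatment: compounds go directly into floodwater standing 3 cm over the soil of pots holding 2-leaf-stage plants. Depth is kept constant; plants stay in a greenhouse 13 to 15 days before visual comparison with controls on a 0–100 scale.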

[1] = system: barnyardgrass (Echinochloa crus-galli); assay: Test C flooded paddy test plant response; details: Flood, 250 g ai/ha; scale of 0 to 100 where 0 is no effect and 100 is complete control; 13 to 15 days
Method in brief: as §1

[2] = system: ducksalad (Heteranthera limosa); assay: Test C flooded paddy test plant response; details: Flood, 250 g ai/ha; scale of 0 to 100 where 0 is no effect and 100 is complete control; 13 to 15 days
Method in brief: as §1

[3] = system: small-flower umbrella sedge (Cyperus difformis); assay: Test C flooded paddy test plant response; details: Flood, 250 g ai/ha; scale of 0 to 100 where 0 is no effect and 100 is complete control; 13 to 15 days
Method in brief: as §1

[4] = system: giant foxtail (Setaria faberii); assay: Test B pre-/postemergence plant response
Description: (§2) Seeds of plant species selected from bamyardgrass (Echinochloa crus-galli), kochia (Kochia scoparia), ragweed (common ragweed, Ambrosia elatior), Italian ryegrass (Lolium multiflorum), large (Lg) crabgrass (Digitaria sanguinalis), giant foxtail (Setaria faberii), momingglory (Ipomoea spp.), pigweed (Amaranthus retroflexus), velvetleaf (Abutilon theophrasti), wheat (Triticum aestivum), and corn (Zea mays) were planted into a blend of loam soil and sand and treated preemergence with a directed soil spray using test chemicals formulated in a non-phytotoxic solvent mixture which included a surfactant. At the same time, plants selected from these crop and weed species and also blackgrass (Alopecurus myosuroides), and galium (catchweed bedstraw, Galium aparine) were planted in pots containing the same blend of loam soil and sand and treated with postemergence applications of test chemicals formulated in the same manner. Plants ranged in height from 2 to 10 cm and were in the one- to two-leaf stage for the postemergence treatment. Treated plants and untreated controls were maintained in a greenhouse for approximately 10 days, after which time all treated plants were compared to untreated controls and visually evaluated for injury. Plant response ratings, summarized in Table B, are based on a 0 to 100 scale where 0 is no effect and 100 is complete control. A dash (-) response means no test result.

corn (Zea mays) = assay: Test B pre-/postemergence plant response; details: 0 to 100 scale, 0 no effect, 100 complete control
Description: as §2

[5] = system: pigweed (Amaranthus retroflexus); assay: Test B pre-/postemergence plant response
Description: as §2

[6] = system: ragweed (common ragweed, Ambrosia elatior); assay: Test B pre-/postemergence plant response
Description: as §2

[7] = system: wheat (Triticum aestivum); assay: Test B pre-/postemergence plant response; details: 0 to 100 scale, 0 no effect, 100 complete control
Description: as §2

[8] = system: Italian ryegrass (Lolium multiflorum); assay: Test B pre-/postemergence plant response
Description: as §2

[9] = system: barnyardgrass (Echinochloa crus-galli); assay: Test B pre-/postemergence plant response
Description: as §2

kochia (Kochia scoparia) = assay: Test B pre-/postemergence plant response
Description: as §2

[10] = system: galium (catchweed bedstraw, Galium aparine); assay: Test B postemergence plant response; details: 0 to 100 scale, 0 no effect, 100 complete control
Method in brief: (§3)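 Pots, loam soil + sand; postemergence treatment at 1–2 leaf stage, 2–10 cm; greenhouse ~10 d; visual injury score 0 (none) to 100 (complete control) relative to untreated controls.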

[11] = system: blackgrass (Alopecurus myosuroides); assay: Test B postemergence plant response; details: 0 to 100 scale, 0 no effect, 100 complete control
Method in brief: as §3

[12] = 31 g ai/ha, Postemergence, 0 to 100 scale, 0 no effect, 100 complete control
[13] = 31 g ai/ha, Preemergence, 0 to 100 scale where 0 is no effect and 100 is complete control
[14] = 125 g ai/ha, postemergence, 0 to 100 scale, 0 no effect, 100 complete control
[15] = Preemergence, 125 g ai/ha, 0 to 100 scale where 0 is no effect and 100 is complete control

SMILES: Cn1ncnc1-c1ccccc1Oc1ncc(Cl)cn1 [Compound 117]
- Rice plant response rating (rice (Oryza sativa)): 0
- Barnyardgrass plant response rating [1]: 0
- Ducksalad plant response rating [2]: 0
- Sedge, Umbrella plant response rating [3]: 0
- Plant response rating, Foxtail, Giant [4, 12]: 0
- Plant response rating, Foxtail, Giant [4, 13]: 0
- Plant response rating, Foxtail, Giant [4, 14]: 0
- Plant response rating, Foxtail, Giant [4, 15]: 0
- Plant response rating, Corn (corn (Zea mays); 31 g ai/ha, Postemergence): 0
- Plant response rating, Corn (corn (Zea mays); 125 g ai/ha, postemergence): 0
- Plant response rating, Pigweed [5, 12]: 0
- Plant response rating, Pigweed [5, 13]: 0
- Plant response rating, Pigweed [5, 14]: 0
- Plant response rating, Ragweed [6, 12]: 0
- Plant response rating, Ragweed [6, 13]: 0
- Plant response rating, Ragweed [6, 14]: 0
- Plant response rating, Wheat ([7]; 31 g ai/ha, Postemergence): 0
- Plant response rating, Wheat ([7]; 125 g ai/ha, postemergence): 0
- Plant response rating, Ryegrass, Italian [8, 12]: 0
- Plant response rating, Ryegrass, Italian [8, 13]: 0
- Plant response rating, Ryegrass, Italian [8, 14]: 0
- Plant response rating, Barnyardgrass [9, 12]: 0
- Plant response rating, Barnyardgrass [9, 13]: 0
- Plant response rating, Barnyardgrass [9, 14]: 0
- Plant response rating, Barnyardgrass [9, 15]: 0
- Plant response rating, Kochia (kochia (Kochia scoparia); [12]): 0
- Plant response rating, Kochia (kochia (Kochia scoparia); [13]): 0
- Plant response rating, Kochia (kochia (Kochia scoparia); [14]): 0
- Plant response rating, Kochia (kochia (Kochia scoparia); [15]): 0
- Plant response rating, Galium ([10]; 31 g ai/ha, Postemergence): 0
- Plant response rating, Galium ([10]; 125 g ai/ha, postemergence): 0
- Plant response rating, Blackgrass ([11]; 31 g ai/ha, Postemergence): 0
- Plant response rating, Blackgrass ([11]; 125 g ai/ha, postemergence): 0

SMILES: Brc1cnc(Oc2ccccc2-c2cc(Br)no2)nc1 [Compound 119]
- Rice plant response rating (rice (Oryza sativa)): 0
- Barnyardgrass plant response rating [1]: 0
- Ducksalad plant response rating [2]: 40
- Sedge, Umbrella plant response rating [3]: 40
- Plant response rating, Foxtail, Giant [4, 12]: 0
- Plant response rating, Foxtail, Giant [4, 13]: 0
- Plant response rating, Foxtail, Giant [4, 14]: 10
- Plant response rating, Foxtail, Giant [4, 15]: 50
- Plant response rating, Corn (corn (Zea mays); 31 g ai/ha, Postemergence): 0
- Plant response rating, Corn (corn (Zea mays); 125 g ai/ha, postemergence): 0
- Plant response rating, Pigweed [5, 12]: 40
- Plant response rating, Pigweed [5, 13]: 0
- Plant response rating, Pigweed [5, 14]: 80
- Plant response rating, Ragweed [6, 12]: 10
- Plant response rating, Ragweed [6, 13]: 0
- Plant response rating, Ragweed [6, 14]: 10
- Plant response rating, Wheat ([7]; 31 g ai/ha, Postemergence): 0
- Plant response rating, Wheat ([7]; 125 g ai/ha, postemergence): 0
- Plant response rating, Ryegrass, Italian [8, 12]: 0
- Plant response rating, Ryegrass, Italian [8, 13]: 0
- Plant response rating, Ryegrass, Italian [8, 14]: 0
- Plant response rating, Barnyardgrass [9, 12]: 0
- Plant response rating, Barnyardgrass [9, 13]: 0
- Plant response rating, Barnyardgrass [9, 14]: 0
- Plant response rating, Barnyardgrass [9, 15]: 0
- Plant response rating, Kochia (kochia (Kochia scoparia); [12]): 0
- Plant response rating, Kochia (kochia (Kochia scoparia); [13]): 0
- Plant response rating, Kochia (kochia (Kochia scoparia); [14]): 30
- Plant response rating, Kochia (kochia (Kochia scoparia); [15]): 10
- Plant response rating, Galium ([10]; 31 g ai/ha, Postemergence): 30
- Plant response rating, Galium ([10]; 125 g ai/ha, postemergence): 60
- Plant response rating, Blackgrass ([11]; 31 g ai/ha, Postemergence): 0
- Plant response rating, Blackgrass ([11]; 125 g ai/ha, postemergence): 0

SMILES: Clc1cnc(Oc2ccccc2-c2nnc(C3CC3)o2)nc1 [Compound 122]
- Rice plant response rating (rice (Oryza sativa)): 0
- Barnyardgrass plant response rating [1]: 0
- Ducksalad plant response rating [2]: 0
- Sedge, Umbrella plant response rating [3]: 0
- Plant response rating, Foxtail, Giant [4, 12]: 0
- Plant response rating, Foxtail, Giant [4, 13]: 0
- Plant response rating, Foxtail, Giant [4, 14]: 0
- Plant response rating, Foxtail, Giant [4, 15]: 0
- Plant response rating, Corn (corn (Zea mays); 31 g ai/ha, Postemergence): 0
- Plant response rating, Corn (corn (Zea mays); 125 g ai/ha, postemergence): 0
- Plant response rating, Pigweed [5, 13]: 10
- Plant response rating, Pigweed [5, 14]: 20
- Plant response rating, Ragweed [6, 13]: 0
- Plant response rating, Ragweed [6, 14]: 10
- Plant response rating, Wheat ([7]; 125 g ai/ha, postemergence): 20
- Plant response rating, Ryegrass, Italian [8, 13]: 0
- Plant response rating, Ryegrass, Italian [8, 14]: 0
- Plant response rating, Barnyardgrass [9, 12]: 0
- Plant response rating, Barnyardgrass [9, 13]: 0
- Plant response rating, Barnyardgrass [9, 14]: 0
- Plant response rating, Barnyardgrass [9, 15]: 0
- Plant response rating, Kochia (kochia (Kochia scoparia); [13]): 0
- Plant response rating, Kochia (kochia (Kochia scoparia); [14]): 20
- Plant response rating, Kochia (kochia (Kochia scoparia); [15]): 10
- Plant response rating, Galium ([10]; 125 g ai/ha, postemergence): 20
- Plant response rating, Blackgrass ([11]; 31 g ai/ha, Postemergence): 0
- Plant response rating, Blackgrass ([11]; 125 g ai/ha, postemergence): 0
